Source: ChEMBL document CHEMBL3044888, “Fungicidal activity of indole derivatives against some plant pathogenic fungi” (J Pestic Sci, 2010)
Converted amounts (≈) assume the structure as drawn.

Legend:
Macrophomina phaseolina [1] = assay: In vivo effect on peroxidase activity in Macrophomina phaseoli assessed as DNA content at 0.25 times of IC50 concentration (reference value: 15.5 +/- 0.5 mg/l); assay type: functional
Rhizoctonia solani [2] = assay: In vivo effect on peroxidase activity in Rhizoctonia solani assessed as non-reducing sugar content per gram of dry hyphal at 0.25 times of IC50 concentration (reference value: 2.8 +/- 0.2 mg/g of dry weight); assay type: functional
Rhizoctonia solani [3] = assay: In vivo effect on peroxidase activity in Rhizoctonia solani assessed as reduced sugar content per gram of dry hyphal at 0.1 times of IC50 concentration (reference value: 17.3 +/- 1 mg/g of dry weight); assay type: functional
Macrophomina phaseolina [4] = assay: In vivo effect on peroxidase activity in Macrophomina phaseoli assessed as total soluble sugar content per gram of dry hyphal at 0.5 times of IC50 concentration (reference value: 19.3 +/- 0.7 mg/g of dry weight); assay type: functional
Rhizoctonia solani [5] = assay: Inhibition of peroxidase activity in Rhizoctonia solani at 0.1 times of IC50 concentration
[6] = biological target: T1, Peroxidase (Macrophomina phaseolina (strain MS6) (Charcoal rot fungus)) (UniProt K2RV19); assay: Inhibition of peroxidase activity in Macrophomina phaseoli at 2 times of IC50 concentration
T1 sequence (whole entry): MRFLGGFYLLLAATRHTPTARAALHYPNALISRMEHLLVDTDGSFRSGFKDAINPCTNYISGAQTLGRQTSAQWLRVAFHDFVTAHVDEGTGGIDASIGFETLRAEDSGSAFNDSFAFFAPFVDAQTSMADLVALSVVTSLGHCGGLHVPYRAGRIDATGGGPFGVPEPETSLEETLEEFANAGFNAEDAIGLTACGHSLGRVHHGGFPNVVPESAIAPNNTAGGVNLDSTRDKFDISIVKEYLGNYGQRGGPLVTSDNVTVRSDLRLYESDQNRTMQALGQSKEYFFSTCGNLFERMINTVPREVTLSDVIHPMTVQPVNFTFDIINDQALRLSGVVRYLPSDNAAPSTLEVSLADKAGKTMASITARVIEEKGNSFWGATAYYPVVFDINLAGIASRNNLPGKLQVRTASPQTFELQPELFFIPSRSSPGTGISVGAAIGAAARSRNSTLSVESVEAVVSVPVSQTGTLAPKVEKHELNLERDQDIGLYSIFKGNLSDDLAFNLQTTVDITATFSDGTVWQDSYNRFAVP

[7] = biological target: T1, Peroxidase (Macrophomina phaseolina (strain MS6) (Charcoal rot fungus)); assay: Inhibition of peroxidase activity in Macrophomina phaseoli at 1 times of IC50 concentration
[8] = biological target: T1, Peroxidase (Macrophomina phaseolina (strain MS6) (Charcoal rot fungus)); assay: Inhibition of peroxidase activity in Macrophomina phaseoli at 0.5 times of IC50 concentration
[9] = Activation of polyphenoloxidase activity in Pythium debaryanum; set-up: species or system Globisporangium debaryanum
[10] = Inhibition of polyphenoloxidase activity in Rhizoctonia solani
Fusarium culmorum [11] = assay: Inhibition of peroxidase activity in Fusarium culmorum at 2 times of IC50 concentration
[12] = Inhibition of peroxidase activity in Fusarium culmorum
Fusarium culmorum [13] = assay: Inhibition of peroxidase activity in Fusarium culmorum at 1 times of IC50 concentration
[14] = Inhibition of peroxidase activity in Pythium debaryanum; set-up: species or system Globisporangium debaryanum
Peroxidase = biological target: T2, Peroxidase (Macrophomina phaseolina (strain MS6) (Charcoal rot fungus), UniProt K2RV19); assay: Activation of peroxidase activity in Macrophomina phaseoli
T2 sequence (K2RV19 whole entry): T1 sequence (whole entry)

[15] = tested on: Globisporangium debaryanum; assay: Inhibition of peroxidase activity in Pythium debaryanum at 2 times of IC50 concentration
[16] = tested on: Globisporangium debaryanum; assay: Inhibition of peroxidase activity in Pythium debaryanum at 1 times of IC50 concentration
[17] = Inhibition of polyphenoloxidase activity in Pythium debaryanum; set-up: species or system Globisporangium debaryanum

c1ccc(-c2cc3ccccc3[nH]2)cc1 [2-PHENYL-1H-INDOLE]
Activity (Macrophomina phaseolina [1]): 6.8 mg/L
Activity (Rhizoctonia solani [2]): 11.4 mg
Activity (Rhizoctonia solani [3]): 44.3 mg
Activity (Macrophomina phaseolina [4]): 4.3 mg
inhibition (Rhizoctonia solani [5]): 0%
inhibition [6]: 54.3%
inhibition [7]: 40.7%
inhibition [8]: 26.7%
AC50 [9]: 35.1 µg/mL (≈ 182 µM)
IC50 [10]: 80.3 µg/mL (≈ 416 µM)
inhibition (Fusarium culmorum [11]): 69.2%
IC50 [12]: 49.9 µg/mL (≈ 258 µM)
inhibition (Fusarium culmorum [13]): 60.1%

CC(=O)n1c(-c2ccccc2)cc2ccccc21
Activity (Macrophomina phaseolina [1]): 10.3 mg/L
Activity (Rhizoctonia solani [2]): 1.2 mg
Activity (Rhizoctonia solani [3]): 9.7 mg
Activity (Macrophomina phaseolina [4]): 31 mg
IC50 [14]: 96.14 µg/mL (≈ 409 µM)
AC50 (Peroxidase): < 25.1 µM
inhibition [15]: 25.7%
inhibition [16]: 19.1%
IC50 [17]: 45.6 µg/mL (≈ 194 µM)
